From the kinase profiling compilation of Christmann-Franck et al. (2016)

What was measured:
Assay in all cases: radiometric filter-binding kinase assay, Kinase HotSpot
Settings in all cases: compound 0.5 µM; ATP 10 µM
MAPK12 (human) = MAPK12 (human) (UniProt P53778)
IRAK4 (human) = IRAK4 (human) (UniProt Q9NWZ3)
SRPK1 (human) = SRPK1 (human) (UniProt Q96SB4)
PTK2 (human) = PTK2 (human) (UniProt Q05397)
PAK7 (human) = PAK7 (human) (UniProt Q9P286)
AKT3 (human) = AKT3 (human) (UniProt Q9Y243)
ADRBK2 (human) = ADRBK2 (human) (UniProt P35626)
NEK3 (human) = NEK3 (human) (UniProt P51956)
CAMK1 (human) = CAMK1 (human) (UniProt Q14012)
CSF1R (human) = CSF1R (human) (UniProt P07333)
DYRK2 (human) = DYRK2 (human) (UniProt Q92630)
DAPK3 (human) = DAPK3 (human) (UniProt O43293)
PIM2 (human) = PIM2 (human) (UniProt Q9P1W9)
IRAK1 (human) = IRAK1 (human) (UniProt P51617)
SRPK2 (human) = SRPK2 (human) (UniProt P78362)
STK33 (human) = STK33 (human) (UniProt Q9BYT3)
FGFR1 (human) = FGFR1 (human) (UniProt P11362)
FGR (human) = FGR (human) (UniProt P09769)
CHUK (human) = CHUK (human) (UniProt O15111)
PTK2B (human) = PTK2B (human) (UniProt Q14289)
CDK7 CCNH MNAT1 (human) = CDK7 CCNH MNAT1 (human) (UniProt P50613+P51948+P51946)
NEK7 (human) = NEK7 (human) (UniProt Q8TDX7)
CDK6 CCND1 (human) = CDK6 CCND1 (human) (UniProt Q00534+P24385)
CAMK1G (human) = CAMK1G (human) (UniProt Q96NX5)
NLK (human) = NLK (human) (UniProt Q9UBE8)
MST4 (human) = MST4 (human) (UniProt Q9P289)
MYLK (human) = MYLK (human) (UniProt Q15746)
STK24 (human) = STK24 (human) (UniProt Q9Y6E0)
FER (human) = FER (human) (UniProt P16591)
EPHA2 (human) = EPHA2 (human) (UniProt P29317)
MAPK14 (human) = MAPK14 (human) (UniProt Q16539)
MINK1 (human) = MINK1 (human) (UniProt Q8N4C8)
MAPK8 (human) = MAPK8 (human) (UniProt P45983)
ERBB2 (human) = ERBB2 (human) (UniProt P04626)
TAOK3 (human) = TAOK3 (human) (UniProt Q9H2K8)
[1] = target: JAK1 JH1 catalytic (human) (UniProt P23458)
DYRK4 (human) = DYRK4 (human) (UniProt Q9NR20)
DSTYK (human) = DSTYK (human) (UniProt Q6XUX3)
BLK (human) = BLK (human) (UniProt P51451)
ADRBK1 (human) = ADRBK1 (human) (UniProt P25098)
DYRK1A (human) = DYRK1A (human) (UniProt Q13627)
CDK9 CCNK (human) = CDK9 CCNK (human) (UniProt O75909+P50750)

Chain of CAMK1G (human) (Q96NX5 whole entry, looked up): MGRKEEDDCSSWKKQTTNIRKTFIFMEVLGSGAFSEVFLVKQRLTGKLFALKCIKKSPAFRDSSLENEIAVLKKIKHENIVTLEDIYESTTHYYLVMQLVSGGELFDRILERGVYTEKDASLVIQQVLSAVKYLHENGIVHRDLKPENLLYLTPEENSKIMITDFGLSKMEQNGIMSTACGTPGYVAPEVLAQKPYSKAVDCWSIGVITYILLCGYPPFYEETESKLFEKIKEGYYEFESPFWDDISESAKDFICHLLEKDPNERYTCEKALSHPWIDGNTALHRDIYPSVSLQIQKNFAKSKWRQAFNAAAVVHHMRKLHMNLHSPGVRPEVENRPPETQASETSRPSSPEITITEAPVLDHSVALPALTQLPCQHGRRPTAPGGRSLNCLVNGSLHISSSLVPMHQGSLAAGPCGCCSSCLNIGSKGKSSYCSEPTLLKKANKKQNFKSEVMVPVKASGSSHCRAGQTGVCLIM
Chain of DAPK3 (human) (O43293 whole entry, looked up): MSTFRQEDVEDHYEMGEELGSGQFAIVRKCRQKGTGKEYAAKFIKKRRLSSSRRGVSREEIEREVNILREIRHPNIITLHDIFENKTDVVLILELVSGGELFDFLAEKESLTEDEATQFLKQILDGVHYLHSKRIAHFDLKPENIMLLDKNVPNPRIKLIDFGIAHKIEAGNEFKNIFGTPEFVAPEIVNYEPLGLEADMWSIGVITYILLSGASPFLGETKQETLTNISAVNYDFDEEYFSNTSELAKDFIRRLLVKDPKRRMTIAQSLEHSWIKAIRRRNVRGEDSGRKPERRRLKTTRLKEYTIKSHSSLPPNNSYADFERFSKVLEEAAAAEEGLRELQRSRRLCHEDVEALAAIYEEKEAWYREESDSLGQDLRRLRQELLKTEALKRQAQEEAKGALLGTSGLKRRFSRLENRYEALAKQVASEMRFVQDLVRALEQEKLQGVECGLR
Chain of FGFR1 (human) (P11362 whole entry, looked up): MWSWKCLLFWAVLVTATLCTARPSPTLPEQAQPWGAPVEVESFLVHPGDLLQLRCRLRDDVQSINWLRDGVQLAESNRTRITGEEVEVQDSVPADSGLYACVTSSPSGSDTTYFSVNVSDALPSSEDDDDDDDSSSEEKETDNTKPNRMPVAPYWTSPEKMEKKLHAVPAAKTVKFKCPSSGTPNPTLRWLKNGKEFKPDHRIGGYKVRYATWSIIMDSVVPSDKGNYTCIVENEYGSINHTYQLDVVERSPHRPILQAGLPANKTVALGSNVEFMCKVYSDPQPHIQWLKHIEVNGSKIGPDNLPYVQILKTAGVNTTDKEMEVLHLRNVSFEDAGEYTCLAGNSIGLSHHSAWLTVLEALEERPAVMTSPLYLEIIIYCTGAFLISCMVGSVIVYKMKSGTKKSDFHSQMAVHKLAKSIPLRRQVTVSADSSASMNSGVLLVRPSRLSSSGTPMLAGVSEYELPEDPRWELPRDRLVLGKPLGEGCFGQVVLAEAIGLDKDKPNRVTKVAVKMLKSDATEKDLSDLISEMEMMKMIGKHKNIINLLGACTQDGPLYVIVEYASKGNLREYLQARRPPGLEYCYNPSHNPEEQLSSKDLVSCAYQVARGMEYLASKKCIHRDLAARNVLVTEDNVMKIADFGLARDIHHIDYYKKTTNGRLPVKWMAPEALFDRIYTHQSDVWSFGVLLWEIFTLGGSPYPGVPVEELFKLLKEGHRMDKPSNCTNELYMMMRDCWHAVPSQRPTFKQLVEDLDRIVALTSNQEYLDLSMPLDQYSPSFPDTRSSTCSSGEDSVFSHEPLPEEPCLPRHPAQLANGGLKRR
Chain of SRPK1 (human) (Q96SB4 whole entry, looked up): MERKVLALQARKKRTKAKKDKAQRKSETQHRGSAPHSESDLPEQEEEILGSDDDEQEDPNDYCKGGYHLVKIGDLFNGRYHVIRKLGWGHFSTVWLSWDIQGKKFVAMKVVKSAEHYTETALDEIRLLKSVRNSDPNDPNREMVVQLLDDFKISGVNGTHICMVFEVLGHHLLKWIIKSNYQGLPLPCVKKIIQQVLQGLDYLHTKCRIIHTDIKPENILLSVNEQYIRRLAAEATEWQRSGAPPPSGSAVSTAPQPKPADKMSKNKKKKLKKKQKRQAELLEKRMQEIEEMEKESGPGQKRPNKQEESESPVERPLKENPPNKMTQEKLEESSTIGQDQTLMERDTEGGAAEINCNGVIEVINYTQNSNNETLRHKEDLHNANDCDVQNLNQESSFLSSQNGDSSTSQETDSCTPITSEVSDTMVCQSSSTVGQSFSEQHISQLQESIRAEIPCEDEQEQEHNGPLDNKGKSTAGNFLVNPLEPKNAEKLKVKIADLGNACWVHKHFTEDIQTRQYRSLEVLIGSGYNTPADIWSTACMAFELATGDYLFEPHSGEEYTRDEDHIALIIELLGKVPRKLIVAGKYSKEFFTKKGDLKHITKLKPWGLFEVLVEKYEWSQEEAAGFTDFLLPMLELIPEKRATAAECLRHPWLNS
Chain of FGR (human) (P09769 whole entry, looked up): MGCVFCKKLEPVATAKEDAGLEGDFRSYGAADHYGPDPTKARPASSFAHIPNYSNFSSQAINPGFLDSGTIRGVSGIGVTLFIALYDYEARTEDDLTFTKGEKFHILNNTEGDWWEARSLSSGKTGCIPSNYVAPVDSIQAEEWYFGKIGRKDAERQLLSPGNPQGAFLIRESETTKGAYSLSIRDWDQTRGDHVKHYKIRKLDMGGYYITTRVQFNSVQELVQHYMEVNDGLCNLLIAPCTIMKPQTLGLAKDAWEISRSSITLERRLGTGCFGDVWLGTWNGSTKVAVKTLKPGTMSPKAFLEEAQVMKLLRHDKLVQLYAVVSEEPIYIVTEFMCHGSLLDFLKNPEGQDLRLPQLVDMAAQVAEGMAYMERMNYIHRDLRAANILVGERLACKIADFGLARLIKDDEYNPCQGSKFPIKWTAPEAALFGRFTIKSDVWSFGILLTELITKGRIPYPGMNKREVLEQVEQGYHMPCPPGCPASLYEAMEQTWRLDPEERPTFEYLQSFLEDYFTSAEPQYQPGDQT
Chain of MAPK14 (human) (Q16539 whole entry, looked up): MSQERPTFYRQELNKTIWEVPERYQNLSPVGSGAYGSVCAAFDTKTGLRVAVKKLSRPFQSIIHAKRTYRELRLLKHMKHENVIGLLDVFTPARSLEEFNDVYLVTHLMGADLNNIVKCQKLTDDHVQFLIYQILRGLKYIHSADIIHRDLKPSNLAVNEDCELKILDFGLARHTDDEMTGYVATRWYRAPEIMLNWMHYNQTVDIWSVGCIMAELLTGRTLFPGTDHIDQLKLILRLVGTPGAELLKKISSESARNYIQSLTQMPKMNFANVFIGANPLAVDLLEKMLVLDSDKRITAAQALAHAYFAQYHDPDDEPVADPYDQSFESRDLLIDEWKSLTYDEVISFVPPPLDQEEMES
Chain of EPHA2 (human) (P29317 whole entry, looked up): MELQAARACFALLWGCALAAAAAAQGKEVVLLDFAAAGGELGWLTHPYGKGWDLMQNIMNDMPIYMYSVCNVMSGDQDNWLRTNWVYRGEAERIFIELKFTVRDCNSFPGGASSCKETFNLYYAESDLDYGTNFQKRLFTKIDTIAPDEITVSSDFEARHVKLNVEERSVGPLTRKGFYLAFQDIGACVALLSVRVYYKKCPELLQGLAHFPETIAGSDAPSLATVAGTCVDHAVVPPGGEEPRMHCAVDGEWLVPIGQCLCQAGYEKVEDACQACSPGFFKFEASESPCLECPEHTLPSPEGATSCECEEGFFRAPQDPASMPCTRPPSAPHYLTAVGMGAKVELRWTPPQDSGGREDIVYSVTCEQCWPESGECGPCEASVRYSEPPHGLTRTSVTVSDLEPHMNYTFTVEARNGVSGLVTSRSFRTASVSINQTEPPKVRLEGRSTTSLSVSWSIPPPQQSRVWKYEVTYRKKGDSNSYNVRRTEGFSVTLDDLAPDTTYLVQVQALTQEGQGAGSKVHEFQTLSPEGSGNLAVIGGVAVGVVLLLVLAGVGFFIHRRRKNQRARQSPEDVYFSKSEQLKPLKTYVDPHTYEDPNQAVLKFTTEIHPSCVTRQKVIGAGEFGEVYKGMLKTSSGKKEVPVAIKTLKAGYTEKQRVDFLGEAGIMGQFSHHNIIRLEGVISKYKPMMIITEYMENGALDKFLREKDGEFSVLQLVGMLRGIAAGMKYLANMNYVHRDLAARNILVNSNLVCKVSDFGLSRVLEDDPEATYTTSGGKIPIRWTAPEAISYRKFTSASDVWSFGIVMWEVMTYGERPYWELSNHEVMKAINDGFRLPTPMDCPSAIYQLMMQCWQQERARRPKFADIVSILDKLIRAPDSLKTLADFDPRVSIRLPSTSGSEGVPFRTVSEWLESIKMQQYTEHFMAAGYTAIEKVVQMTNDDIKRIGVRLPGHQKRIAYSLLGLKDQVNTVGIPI
Chain of NEK7 (human) (Q8TDX7 whole entry, looked up): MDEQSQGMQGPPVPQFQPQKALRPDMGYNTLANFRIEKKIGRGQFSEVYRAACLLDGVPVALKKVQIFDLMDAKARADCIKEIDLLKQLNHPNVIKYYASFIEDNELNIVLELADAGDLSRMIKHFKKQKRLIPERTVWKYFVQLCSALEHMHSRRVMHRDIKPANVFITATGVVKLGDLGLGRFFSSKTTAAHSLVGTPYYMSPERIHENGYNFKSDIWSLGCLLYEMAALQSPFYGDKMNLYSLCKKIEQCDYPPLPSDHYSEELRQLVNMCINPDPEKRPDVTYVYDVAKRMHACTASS
Chain of MAPK8 (human) (P45983 whole entry, looked up): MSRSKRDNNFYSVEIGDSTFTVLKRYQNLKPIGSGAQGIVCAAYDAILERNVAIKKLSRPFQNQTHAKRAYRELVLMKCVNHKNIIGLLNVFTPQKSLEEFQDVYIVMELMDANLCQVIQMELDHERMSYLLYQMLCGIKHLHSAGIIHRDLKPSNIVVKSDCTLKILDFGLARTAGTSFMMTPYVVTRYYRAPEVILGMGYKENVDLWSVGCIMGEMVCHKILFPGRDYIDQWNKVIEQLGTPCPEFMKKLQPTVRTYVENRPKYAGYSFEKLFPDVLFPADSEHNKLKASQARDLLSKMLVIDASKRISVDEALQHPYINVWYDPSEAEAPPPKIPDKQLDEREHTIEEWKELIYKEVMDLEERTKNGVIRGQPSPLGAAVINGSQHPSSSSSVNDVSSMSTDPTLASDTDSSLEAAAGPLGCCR

`Cc1ccc(S(=O)(=O)/C=C/C#N)cc1` gave a residual activity (MAPK12 (human)) of 90.5%, a residual activity (IRAK4 (human)) of 161% and a residual activity (SRPK1 (human)) of 99.7%. It also gave a residual activity (PTK2 (human)) of 104%, a residual activity (PAK7 (human)) of 100% and a residual activity (AKT3 (human)) of 93.7%. The residual activity (ADRBK2 (human)) was 99.1%, the residual activity (NEK3 (human)) was 108% and the residual activity (CAMK1 (human)) was 98.8%. The residual activity (CSF1R (human)) was 93.6%, the residual activity (DYRK2 (human)) was 102% and the residual activity (DAPK3 (human)) was 97.4%. It also gave a residual activity (PIM2 (human)) of 103%, a residual activity (IRAK1 (human)) of 103% and a residual activity (SRPK2 (human)) of 108%. It also gave a residual activity (STK33 (human)) of 87.1%, a residual activity (FGFR1 (human)) of 106% and a residual activity (FGR (human)) of 100%. The residual activity (CHUK (human)) was 87.3%, the residual activity (PTK2B (human)) was 92.8% and the residual activity (CDK7 CCNH MNAT1 (human)) was 98.2%. The residual activity (NEK7 (human)) was 93.4%, the residual activity (CDK6 CCND1 (human)) was 91.4% and the residual activity (CAMK1G (human)) was 99.9%. It also gave a residual activity (NLK (human)) of 99.2%, a residual activity (MST4 (human)) of 90.7% and a residual activity (MYLK (human)) of 93.9%. The residual activity (STK24 (human)) was 89.3%, the residual activity (FER (human)) was 104% and the residual activity (EPHA2 (human)) was 105%. It also gave a residual activity (MAPK14 (human)) of 97.4%, a residual activity (MINK1 (human)) of 111% and a residual activity (MAPK8 (human)) of 74.7%. It also gave a residual activity (ERBB2 (human)) of 94.2%, a residual activity (TAOK3 (human)) of 101% and a residual activity [1] of 98.2%. It also gave a residual activity (DYRK4 (human)) of 95.1%, a residual activity (DSTYK (human)) of 97.8% and a residual activity (BLK (human)) of 103%. The residual activity (ADRBK1 (human)) was 102%, the residual activity (DYRK1A (human)) was 107% and the residual activity (CDK9 CCNK (human)) was 112%.

`Nc1ncnc2[nH]nc(Nc3ccc(F)cc3)c12` showed a residual activity (MAPK12 (human)) of 94.2%, a residual activity (IRAK4 (human)) of 88.3% and a residual activity (SRPK1 (human)) of 104%. The residual activity (PTK2 (human)) was 103%, the residual activity (PAK7 (human)) was 116% and the residual activity (AKT3 (human)) was 104%. The residual activity (ADRBK2 (human)) was 102%, the residual activity (NEK3 (human)) was 102% and the residual activity (CAMK1 (human)) was 103%. For the same compound, the residual activity (CSF1R (human)) was 101%, the residual activity (DYRK2 (human)) was 90.6% and the residual activity (DAPK3 (human)) was 124%. For the same compound, the residual activity (PIM2 (human)) was 89.3%, the residual activity (IRAK1 (human)) was 91.8% and the residual activity (SRPK2 (human)) was 97.1%. For the same compound, the residual activity (STK33 (human)) was 94.3%, the residual activity (FGFR1 (human)) was 91.2% and the residual activity (FGR (human)) was 89.5%. It also gave a residual activity (CHUK (human)) of 99.5%, a residual activity (PTK2B (human)) of 101% and a residual activity (CDK7 CCNH MNAT1 (human)) of 98.4%. The residual activity (NEK7 (human)) was 97%, the residual activity (CDK6 CCND1 (human)) was 96.6% and the residual activity (CAMK1G (human)) was 97.2%. For the same compound, the residual activity (NLK (human)) was 95.4%, the residual activity (MST4 (human)) was 91% and the residual activity (MYLK (human)) was 94.7%. For the same compound, the residual activity (STK24 (human)) was 81.6%, the residual activity (FER (human)) was 100% and the residual activity (EPHA2 (human)) was 89.9%. For the same compound, the residual activity (MAPK14 (human)) was 79.5%, the residual activity (MINK1 (human)) was 88.9% and the residual activity (MAPK8 (human)) was 111%. The residual activity (ERBB2 (human)) was 101%, the residual activity (TAOK3 (human)) was 92.4% and the residual activity [1] was 99%. It also gave a residual activity (DYRK4 (human)) of 104%, a residual activity (DSTYK (human)) of 109% and a residual activity (BLK (human)) of 101%. For the same compound, the residual activity (ADRBK1 (human)) was 98.6%, the residual activity (DYRK1A (human)) was 86.4% and the residual activity (CDK9 CCNK (human)) was 92.4%.

`c1ccc(-c2n[nH]c3c2oc2ccccc23)cc1` gave a residual activity (MAPK12 (human)) of 100%, a residual activity (IRAK4 (human)) of 92.7% and a residual activity (SRPK1 (human)) of 113%. The residual activity (PTK2 (human)) was 94.7%, the residual activity (PAK7 (human)) was 70.9% and the residual activity (AKT3 (human)) was 84.4%. The residual activity (ADRBK2 (human)) was 119%, the residual activity (NEK3 (human)) was 98.9% and the residual activity (CAMK1 (human)) was 85.2%. It also gave a residual activity (CSF1R (human)) of 78.1%, a residual activity (DYRK2 (human)) of 95.4% and a residual activity (DAPK3 (human)) of 91.5%. It also gave a residual activity (PIM2 (human)) of 104%, a residual activity (IRAK1 (human)) of 98% and a residual activity (SRPK2 (human)) of 95%. It also gave a residual activity (STK33 (human)) of 96.5%, a residual activity (FGFR1 (human)) of 85.9% and a residual activity (FGR (human)) of 116%. It also gave a residual activity (CHUK (human)) of 92.3%, a residual activity (PTK2B (human)) of 96.8% and a residual activity (CDK7 CCNH MNAT1 (human)) of 101%. For the same compound, the residual activity (NEK7 (human)) was 105%, the residual activity (CDK6 CCND1 (human)) was 90.4% and the residual activity (CAMK1G (human)) was 100%. It also gave a residual activity (NLK (human)) of 92.3%, a residual activity (MST4 (human)) of 90.6% and a residual activity (MYLK (human)) of 86.1%. It also gave a residual activity (STK24 (human)) of 75.3%, a residual activity (FER (human)) of 103% and a residual activity (EPHA2 (human)) of 105%. It also gave a residual activity (MAPK14 (human)) of 102%, a residual activity (MINK1 (human)) of 81.4% and a residual activity (MAPK8 (human)) of 79.6%. The residual activity (ERBB2 (human)) was 104%, the residual activity (TAOK3 (human)) was 94.8% and the residual activity [1] was 104%. The residual activity (DYRK4 (human)) was 99.7%, the residual activity (DSTYK (human)) was 82.9% and the residual activity (BLK (human)) was 88.9%. It also gave a residual activity (ADRBK1 (human)) of 104%, a residual activity (DYRK1A (human)) of 114% and a residual activity (CDK9 CCNK (human)) of 86.2%.

`CCN(CC)C(=O)c1ccc(Nc2nc(OCC3CCCCC3)c3nc[nH]c3n2)cc1` gave a residual activity (MAPK12 (human)) of 99.4%, a residual activity (IRAK4 (human)) of 92.4% and a residual activity (SRPK1 (human)) of 91.7%. It also gave a residual activity (PTK2 (human)) of 76.9%, a residual activity (PAK7 (human)) of 49.1% and a residual activity (AKT3 (human)) of 101%. For the same compound, the residual activity (ADRBK2 (human)) was 92.7%, the residual activity (NEK3 (human)) was 69.4% and the residual activity (CAMK1 (human)) was 85.6%. The residual activity (CSF1R (human)) was 5.73%, the residual activity (DYRK2 (human)) was 98.2% and the residual activity (DAPK3 (human)) was 98.4%. The residual activity (PIM2 (human)) was 105%, the residual activity (IRAK1 (human)) was 93.8% and the residual activity (SRPK2 (human)) was 87.8%. It also gave a residual activity (STK33 (human)) of 67.2%, a residual activity (FGFR1 (human)) of 72.8% and a residual activity (FGR (human)) of 54.2%. For the same compound, the residual activity (CHUK (human)) was 103%, the residual activity (PTK2B (human)) was 48.7% and the residual activity (CDK7 CCNH MNAT1 (human)) was 87.6%. For the same compound, the residual activity (NEK7 (human)) was 103%, the residual activity (CDK6 CCND1 (human)) was 52.9% and the residual activity (CAMK1G (human)) was 96.1%. It also gave a residual activity (NLK (human)) of 94.5%, a residual activity (MST4 (human)) of 84.9% and a residual activity (MYLK (human)) of 91.6%. For the same compound, the residual activity (STK24 (human)) was 84.5%, the residual activity (FER (human)) was 42% and the residual activity (EPHA2 (human)) was 90.6%. It also gave a residual activity (MAPK14 (human)) of 94.7%, a residual activity (MINK1 (human)) of 88.5% and a residual activity (MAPK8 (human)) of 51.1%. The residual activity (ERBB2 (human)) was 99.4%, the residual activity (TAOK3 (human)) was 74.2% and the residual activity [1] was 51.8%. It also gave a residual activity (DYRK4 (human)) of 93.6%, a residual activity (DSTYK (human)) of 106% and a residual activity (BLK (human)) of 60.9%. The residual activity (ADRBK1 (human)) was 92.6%, the residual activity (DYRK1A (human)) was 91.9% and the residual activity (CDK9 CCNK (human)) was 72.6%.
